Calls of active or inactive are those of the source.
What was measured:
[1] = target: Lysine-specific demethylase 4A (Homo sapiens, UniProt O75164); assay: JMJD2A histone demethylase inhibitors, dose response, selectivity assay for GASC-1 inhibitor project, biochemical, DELFIA europium, cherry-picked samples (AID 488840)
[2] = target: T1, Tyrosine-protein phosphatase non-receptor type 7 (Homo sapiens, UniProt P35236); assay: HTS HePTP Fluorescent Assay using OMFP substrate for In Vitro dose response studies. [Related pubchem assays (depositor defined):AID1059, AID1077, AID1784, AID2068, AID2085, AID435032, AID521]; format: functional
T1 sequence (P35236 whole entry): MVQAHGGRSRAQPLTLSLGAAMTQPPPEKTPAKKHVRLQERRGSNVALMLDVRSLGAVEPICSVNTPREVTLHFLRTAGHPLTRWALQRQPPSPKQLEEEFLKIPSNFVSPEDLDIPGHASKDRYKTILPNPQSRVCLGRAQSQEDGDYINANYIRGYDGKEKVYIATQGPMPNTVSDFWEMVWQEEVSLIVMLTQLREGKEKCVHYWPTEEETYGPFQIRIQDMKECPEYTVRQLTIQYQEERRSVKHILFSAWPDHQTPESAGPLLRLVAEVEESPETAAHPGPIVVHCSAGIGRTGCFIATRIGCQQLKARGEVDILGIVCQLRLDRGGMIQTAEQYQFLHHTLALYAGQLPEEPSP

[3] = target: T2, Tyrosine-protein phosphatase non-receptor type 22 (Homo sapiens, UniProt Q9Y2R2); assay: SAR LYP1 Fluorescent Assay using OMFP substrate for In Vitro dose response studies - Set 2. [Related pubchem assays (depositor defined):AID1779, AID1784, AID2140, AID449726, AID488869]; format: functional
T2 sequence (Q9Y2R2 whole entry): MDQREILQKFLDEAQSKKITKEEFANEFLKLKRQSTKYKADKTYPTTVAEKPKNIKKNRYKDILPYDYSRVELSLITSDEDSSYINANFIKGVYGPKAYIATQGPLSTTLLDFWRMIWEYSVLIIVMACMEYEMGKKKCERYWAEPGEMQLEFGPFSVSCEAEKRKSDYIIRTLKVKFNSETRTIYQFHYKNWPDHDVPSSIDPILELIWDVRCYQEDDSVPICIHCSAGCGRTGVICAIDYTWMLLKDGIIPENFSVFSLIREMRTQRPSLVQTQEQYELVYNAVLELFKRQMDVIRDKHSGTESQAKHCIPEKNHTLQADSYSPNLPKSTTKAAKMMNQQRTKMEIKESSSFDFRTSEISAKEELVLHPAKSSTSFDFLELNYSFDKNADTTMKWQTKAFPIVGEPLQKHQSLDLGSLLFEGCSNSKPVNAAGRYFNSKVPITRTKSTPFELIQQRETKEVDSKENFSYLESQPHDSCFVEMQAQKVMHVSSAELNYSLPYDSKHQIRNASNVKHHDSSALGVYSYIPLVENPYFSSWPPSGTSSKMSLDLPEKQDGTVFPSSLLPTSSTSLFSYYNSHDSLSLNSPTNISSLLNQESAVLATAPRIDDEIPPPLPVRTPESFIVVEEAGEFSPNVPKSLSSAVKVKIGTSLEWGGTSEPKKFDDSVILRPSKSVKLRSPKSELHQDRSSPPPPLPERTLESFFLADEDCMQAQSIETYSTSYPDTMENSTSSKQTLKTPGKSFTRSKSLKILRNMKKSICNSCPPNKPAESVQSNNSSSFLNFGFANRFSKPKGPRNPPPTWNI

[4] = target: T2, Tyrosine-protein phosphatase non-receptor type 22; assay: SAR LYP1 Fluorescent Assay using pCAP substrate for In Vitro dose response studies - Set 2. [Related pubchem assays (depositor defined):AID1779, AID1784, AID2135, AID449727]; format: functional
[5] = target: T2, Tyrosine-protein phosphatase non-receptor type 22; assay: LYP (PTPN22) phosphatase inhibitor potency, SAR follow-up, biochemical, pCAP fluorogenic substrate, fluorescence, set 3 (AID 449727); format: functional
[6] = target: T3, Dual specificity protein phosphatase 3 (Homo sapiens, UniProt P51452); assay: VHR1 phosphatase inhibitors, biochemical (AID 1878)
[7] = target: T1, Tyrosine-protein phosphatase non-receptor type 7; assay: HePTP (PTPN7) phosphatase inhibitor potency, SAR follow-up, biochemical, set 2 (AID 449736); format: functional
[8] = target: T4, Dual specificity protein phosphatase 6 (Rattus norvegicus, UniProt Q64346); assay: MKP-3 phosphatase inhibitors, primary screen, biochemical, rat enzyme, in vitro (AID 425)
T4 sequence (Q64346 whole entry): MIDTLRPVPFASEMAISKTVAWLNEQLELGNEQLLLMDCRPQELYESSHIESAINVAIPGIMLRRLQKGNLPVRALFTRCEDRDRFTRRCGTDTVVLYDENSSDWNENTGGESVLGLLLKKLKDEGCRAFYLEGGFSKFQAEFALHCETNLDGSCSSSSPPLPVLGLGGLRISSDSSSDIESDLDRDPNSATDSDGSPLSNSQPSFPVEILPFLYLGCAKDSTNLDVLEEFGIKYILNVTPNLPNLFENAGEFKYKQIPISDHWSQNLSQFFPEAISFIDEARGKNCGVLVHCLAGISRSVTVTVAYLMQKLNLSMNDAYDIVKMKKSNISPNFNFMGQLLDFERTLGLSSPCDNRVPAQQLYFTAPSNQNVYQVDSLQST

[9] = target: T5, Low molecular weight phosphotyrosine protein phosphatase (Homo sapiens, UniProt P24666); format: functional; conditions: read-out: IC50_Mean
[10] = target: T2, Tyrosine-protein phosphatase non-receptor type 22; assay: PubChem AID 2135
[11] = target: T1, Tyrosine-protein phosphatase non-receptor type 7; format: functional
[12] = target: T3, Dual specificity protein phosphatase 3; assay: VHR1 phosphatase inhibitors, primary screen, biochemical, absorbance, uHTS (AID 1654)
[13] = target: T5, Low molecular weight phosphotyrosine protein phosphatase; format: functional; conditions: read-out: IC50_Mean; remark: listed apart in the source
[14] = target: T2, Tyrosine-protein phosphatase non-receptor type 22; assay: inhibitors of LYP phosphatase, biochemical, fluorescence intensity, uHTS (AID 1779)
[15] = target: Tyrosine-protein phosphatase non-receptor type 12 (Homo sapiens, UniProt Q05209); assay: SAR Selectivity Analysis of small molecule inhibitors of PEST using pCAP in a fluorescence assay. [Related pubchem assays (depositor defined):AID1779, AID1784, AID2135]; format: functional
[16] = target: T2, Tyrosine-protein phosphatase non-receptor type 22; assay: LYP1 Fluorescent Assay using OMFP substrate for In Vitro dose response studies. [Related pubchem assays (depositor defined):AID1779, AID1784, AID435024]
[17] = target: T2, Tyrosine-protein phosphatase non-receptor type 22; format: functional
[18] = target: T2, Tyrosine-protein phosphatase non-receptor type 22; assay: SAR LYP1 Fluorescent Assay using OMFP substrate for In Vitro dose response studies - Set 3. [Related pubchem assays (depositor defined):AID1779, AID1784, AID2140, AID2686]; format: functional
[19] = target: T2, Tyrosine-protein phosphatase non-receptor type 22; assay: PubChem AID 2140
[20] = target: Lysine-specific demethylase 4C (Homo sapiens, UniProt Q9H3R0); assay: GASC-1 (JMJD2C) histone demethylase inhibitors, dose response, biochemical, DELFIA europium, cherry-picked samples (AID 488835); format: functional
[21] = target: Signal transducer and activator of transcription 1-alpha/beta (Homo sapiens, UniProt P42224); assay: STAT3 inhibitors, late-stage profile, late-stage follow-up, cell-based, STAT1 panel, qPCR, cytotoxicity, panel member STAT1 Inhibition (AID 2078)
[22] = target: Signal transducer and activator of transcription 3 (Homo sapiens, UniProt P40763); assay: STAT3 inhibitors, late-stage profile, late-stage follow-up, cell-based, STAT1 panel, qPCR, cytotoxicity, panel member STAT3 Inhibition (AID 2078)
[23] = system: HEK293; assay: NOD1 signaling inhibitors, primary screen, cell-based, luminescence, uHTS (AID 1578); format: functional; conditions: Homo sapiens
[24] = system: HEK293; assay: NOD2 signaling inhibitors in MDP-stimulated cells, cell-based, uHTS, luminescence (AID 2001); format: functional; conditions: Homo sapiens
[25] = system: HEK293; assay: cells; format: functional, cell-based; conditions: Homo sapiens
[26] = system: HEK293; assay: cells; conditions: Homo sapiens
[27] = system: HEK293; assay: cells; format: functional, cell-based; conditions: Homo sapiens; remark: listed apart in the source
[28] = system: HEK293; assay: cells; format: functional, cell-based; conditions: Homo sapiens; remark: listed apart in the source
[29] = target: T6, Coagulation factor XII (Homo sapiens, UniProt P00748); format: functional;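 note: activated factor XIIa alpha cleaving a fluorogenic AMC peptide substrate; inhibitor potency from loss of enzyme activity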
T6 sequence (P00748 whole entry): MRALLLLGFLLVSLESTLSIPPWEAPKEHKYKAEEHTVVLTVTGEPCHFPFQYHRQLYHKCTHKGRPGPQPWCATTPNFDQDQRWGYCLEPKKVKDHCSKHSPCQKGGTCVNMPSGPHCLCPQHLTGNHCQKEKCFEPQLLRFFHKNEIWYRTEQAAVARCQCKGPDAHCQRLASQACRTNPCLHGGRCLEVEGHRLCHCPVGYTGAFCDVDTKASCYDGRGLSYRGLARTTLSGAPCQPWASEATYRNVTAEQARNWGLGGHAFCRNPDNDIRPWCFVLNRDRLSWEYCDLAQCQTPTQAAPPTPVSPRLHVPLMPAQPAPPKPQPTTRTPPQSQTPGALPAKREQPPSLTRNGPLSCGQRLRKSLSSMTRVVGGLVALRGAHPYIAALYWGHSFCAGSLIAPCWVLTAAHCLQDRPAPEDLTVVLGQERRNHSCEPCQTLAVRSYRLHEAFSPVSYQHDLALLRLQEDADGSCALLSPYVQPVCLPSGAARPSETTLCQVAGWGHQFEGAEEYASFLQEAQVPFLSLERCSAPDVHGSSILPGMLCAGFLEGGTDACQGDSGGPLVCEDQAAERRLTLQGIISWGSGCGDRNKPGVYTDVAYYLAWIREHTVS

[30] = target: T7, SUMO-activating enzyme (Homo sapiens, UniProt Q9UBT2); assay: SUMOylation inhibitor hit validation, confirmation, SUMOylation inhibitor project, biochemical, AlphaScreen (AID 2018); format: functional
[31] = target: T8, Carboxy-terminal domain RNA polymerase II polypeptide A small phosphatase 1 (Homo sapiens, UniProt Q9GZU7); assay: inhibitors of CTDSP1, concentration-response testing, biochemical assay, absorbance-based, actives from ultra-high-throughput screening (AID 540297); format: functional
T8 sequence (Q9GZU7 whole entry): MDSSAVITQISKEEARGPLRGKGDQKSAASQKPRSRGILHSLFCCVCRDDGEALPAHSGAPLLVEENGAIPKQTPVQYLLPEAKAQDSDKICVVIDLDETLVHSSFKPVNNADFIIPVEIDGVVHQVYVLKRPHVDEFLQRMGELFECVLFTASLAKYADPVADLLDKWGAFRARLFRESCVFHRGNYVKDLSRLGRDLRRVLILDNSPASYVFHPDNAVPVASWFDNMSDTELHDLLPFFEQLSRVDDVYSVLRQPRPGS

[32] = target: T7, SUMO-activating enzyme; assay: inhibitors of in vitro SUMOylation cascade, primary screen, biochemical, HTRF, uHTS (AID 2006); format: protein-complex assay
[33] = system: CHO-K1; assay: (§1) Counterscreen for antagonists of the orexin 1 receptor (OX1R; HCRTR1): Homogeneous time resolved fluorescence (HTRF)-based cell-based dose response assay to identify antagonists of the parental CHO-K1 cell line. [Related pubchem assays (depositor defined):AID434989, AID435008, AID463079, AID485270, AID492963, AID492964, AID492965, AID493232, AID504699, AID504701]; format: functional; conditions: Cricetulus griseus
[34] = target: T9, Orexin/Hypocretin receptor type 1 (Homo sapiens, UniProt O43613); assay: (§2) Fluorescence-based cell-based high throughput dose response assay for antagonists of the orexin 1 receptor (OX1R; HCRTR1). [Related pubchem assays (depositor defined):AID434989, AID435008, AID463079, AID485270, AID492963, AID492964, AID492965, AID493232, AID504717, AID504718]; format: functional
[35] = as §1, with “Fluorescence-based” for “Homogeneous time resolved fluorescence (HTRF)-based”, “cell-based high throughput” for “cell-based”, “CHO” for “CHO-K1”; format: functional
[36] = target: T9, Orexin/Hypocretin receptor type 1; assay: as §2, with “Homogeneous Time Resolved Fluorescence (HTRF)-based” for “Fluorescence-based”; format: functional

T9 sequence (O43613 whole entry): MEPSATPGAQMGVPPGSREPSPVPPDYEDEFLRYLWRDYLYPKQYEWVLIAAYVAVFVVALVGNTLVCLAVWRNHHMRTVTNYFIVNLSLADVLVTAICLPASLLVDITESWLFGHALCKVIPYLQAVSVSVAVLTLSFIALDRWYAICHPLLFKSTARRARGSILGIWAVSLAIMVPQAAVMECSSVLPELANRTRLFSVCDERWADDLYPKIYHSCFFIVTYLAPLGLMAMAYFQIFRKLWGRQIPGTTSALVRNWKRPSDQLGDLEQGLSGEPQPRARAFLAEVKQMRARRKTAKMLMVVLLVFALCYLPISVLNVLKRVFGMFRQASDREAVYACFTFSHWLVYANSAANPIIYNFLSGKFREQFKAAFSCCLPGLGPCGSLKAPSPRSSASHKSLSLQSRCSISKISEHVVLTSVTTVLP
T3 sequence (P51452 whole entry): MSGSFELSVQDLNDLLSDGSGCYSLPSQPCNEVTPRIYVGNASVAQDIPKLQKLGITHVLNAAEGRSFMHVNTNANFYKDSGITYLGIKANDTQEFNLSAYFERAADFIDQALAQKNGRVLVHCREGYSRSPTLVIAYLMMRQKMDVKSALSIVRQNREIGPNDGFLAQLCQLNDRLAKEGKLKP
T5 sequence (P24666 whole entry): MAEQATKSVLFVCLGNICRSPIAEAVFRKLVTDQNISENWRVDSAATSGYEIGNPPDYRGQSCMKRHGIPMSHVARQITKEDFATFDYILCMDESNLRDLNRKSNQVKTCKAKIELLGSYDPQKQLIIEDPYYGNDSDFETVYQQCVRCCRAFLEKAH
T7 sequence (Q9UBE0 whole entry, the tested form may be a part): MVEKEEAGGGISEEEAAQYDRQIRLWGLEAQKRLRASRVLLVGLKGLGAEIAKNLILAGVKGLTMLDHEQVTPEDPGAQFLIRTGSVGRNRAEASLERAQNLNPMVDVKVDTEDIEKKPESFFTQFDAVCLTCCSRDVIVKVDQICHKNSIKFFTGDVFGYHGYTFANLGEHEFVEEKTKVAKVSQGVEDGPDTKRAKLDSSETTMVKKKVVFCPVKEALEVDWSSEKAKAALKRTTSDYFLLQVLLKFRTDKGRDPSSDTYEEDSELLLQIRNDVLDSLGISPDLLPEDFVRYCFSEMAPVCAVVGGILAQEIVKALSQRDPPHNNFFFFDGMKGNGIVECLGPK
T7 sequence (Q9UBT2 whole entry, the tested form may be a part): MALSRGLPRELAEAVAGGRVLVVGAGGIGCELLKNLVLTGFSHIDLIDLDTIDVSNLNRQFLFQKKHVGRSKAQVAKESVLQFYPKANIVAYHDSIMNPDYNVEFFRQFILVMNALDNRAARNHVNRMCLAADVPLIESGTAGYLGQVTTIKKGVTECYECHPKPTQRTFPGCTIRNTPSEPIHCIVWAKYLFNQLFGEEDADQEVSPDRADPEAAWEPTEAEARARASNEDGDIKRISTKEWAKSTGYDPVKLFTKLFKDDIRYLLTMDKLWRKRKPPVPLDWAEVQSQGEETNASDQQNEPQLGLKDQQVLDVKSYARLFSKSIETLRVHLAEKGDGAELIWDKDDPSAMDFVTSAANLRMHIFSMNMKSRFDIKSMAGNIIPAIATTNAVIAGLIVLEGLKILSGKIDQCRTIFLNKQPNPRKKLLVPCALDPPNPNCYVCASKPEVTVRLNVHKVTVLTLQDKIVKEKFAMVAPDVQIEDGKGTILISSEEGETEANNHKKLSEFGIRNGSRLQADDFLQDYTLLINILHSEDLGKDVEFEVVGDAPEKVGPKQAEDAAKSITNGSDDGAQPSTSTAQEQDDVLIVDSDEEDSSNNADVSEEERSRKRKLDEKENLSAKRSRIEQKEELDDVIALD
Lysine-specific demethylase 4C, sequence (Q9H3R0 whole entry): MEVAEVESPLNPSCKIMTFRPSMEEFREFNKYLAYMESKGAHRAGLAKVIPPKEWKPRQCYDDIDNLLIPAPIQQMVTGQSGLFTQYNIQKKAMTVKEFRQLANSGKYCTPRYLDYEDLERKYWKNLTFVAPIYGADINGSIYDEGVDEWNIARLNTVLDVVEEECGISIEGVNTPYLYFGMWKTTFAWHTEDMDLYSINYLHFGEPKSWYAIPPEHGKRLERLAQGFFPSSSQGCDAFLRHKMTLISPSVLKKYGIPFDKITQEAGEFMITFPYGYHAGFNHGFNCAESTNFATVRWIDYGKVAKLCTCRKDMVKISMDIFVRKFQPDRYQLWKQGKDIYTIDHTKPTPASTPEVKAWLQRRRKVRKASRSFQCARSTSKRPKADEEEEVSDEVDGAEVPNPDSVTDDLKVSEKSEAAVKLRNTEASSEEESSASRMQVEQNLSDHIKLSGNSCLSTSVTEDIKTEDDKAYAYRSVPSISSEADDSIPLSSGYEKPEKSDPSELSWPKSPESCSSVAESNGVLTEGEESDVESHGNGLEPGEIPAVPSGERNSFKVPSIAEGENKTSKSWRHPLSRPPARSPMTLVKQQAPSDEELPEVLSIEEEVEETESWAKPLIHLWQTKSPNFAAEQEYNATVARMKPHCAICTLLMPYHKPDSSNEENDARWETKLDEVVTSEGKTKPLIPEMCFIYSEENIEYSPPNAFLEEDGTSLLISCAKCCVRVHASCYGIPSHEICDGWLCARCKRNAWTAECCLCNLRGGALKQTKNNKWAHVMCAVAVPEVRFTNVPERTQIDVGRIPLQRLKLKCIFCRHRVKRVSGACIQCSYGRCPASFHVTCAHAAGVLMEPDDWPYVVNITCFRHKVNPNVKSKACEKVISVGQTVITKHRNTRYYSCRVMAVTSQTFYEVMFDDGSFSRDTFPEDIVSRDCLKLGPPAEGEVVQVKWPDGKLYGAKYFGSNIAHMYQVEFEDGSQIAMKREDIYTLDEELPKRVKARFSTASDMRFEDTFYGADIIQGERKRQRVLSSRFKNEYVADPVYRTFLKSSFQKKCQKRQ
Signal transducer and activator of transcription 1-alpha/beta, sequence (P42224 whole entry): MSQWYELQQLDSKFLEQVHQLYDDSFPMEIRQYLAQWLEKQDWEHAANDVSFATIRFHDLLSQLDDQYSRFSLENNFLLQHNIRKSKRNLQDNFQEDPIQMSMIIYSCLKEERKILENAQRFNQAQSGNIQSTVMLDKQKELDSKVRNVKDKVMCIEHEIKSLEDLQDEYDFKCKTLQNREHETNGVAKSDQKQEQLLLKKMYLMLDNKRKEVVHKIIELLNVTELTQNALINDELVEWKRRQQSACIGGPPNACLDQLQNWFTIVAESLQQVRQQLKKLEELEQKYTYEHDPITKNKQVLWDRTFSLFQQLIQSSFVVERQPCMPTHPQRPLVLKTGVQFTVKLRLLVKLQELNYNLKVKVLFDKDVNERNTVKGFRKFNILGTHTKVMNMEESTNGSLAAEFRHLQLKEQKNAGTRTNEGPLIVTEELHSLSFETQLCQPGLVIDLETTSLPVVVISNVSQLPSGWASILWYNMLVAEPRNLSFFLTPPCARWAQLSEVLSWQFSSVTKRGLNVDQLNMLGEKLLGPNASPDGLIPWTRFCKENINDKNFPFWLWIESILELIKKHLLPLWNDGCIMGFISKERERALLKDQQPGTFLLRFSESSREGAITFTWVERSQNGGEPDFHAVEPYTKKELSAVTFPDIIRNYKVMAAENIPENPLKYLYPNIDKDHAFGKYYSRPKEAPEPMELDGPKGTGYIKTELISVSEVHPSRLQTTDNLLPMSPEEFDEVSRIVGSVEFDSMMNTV
Signal transducer and activator of transcription 3, sequence (P40763 whole entry): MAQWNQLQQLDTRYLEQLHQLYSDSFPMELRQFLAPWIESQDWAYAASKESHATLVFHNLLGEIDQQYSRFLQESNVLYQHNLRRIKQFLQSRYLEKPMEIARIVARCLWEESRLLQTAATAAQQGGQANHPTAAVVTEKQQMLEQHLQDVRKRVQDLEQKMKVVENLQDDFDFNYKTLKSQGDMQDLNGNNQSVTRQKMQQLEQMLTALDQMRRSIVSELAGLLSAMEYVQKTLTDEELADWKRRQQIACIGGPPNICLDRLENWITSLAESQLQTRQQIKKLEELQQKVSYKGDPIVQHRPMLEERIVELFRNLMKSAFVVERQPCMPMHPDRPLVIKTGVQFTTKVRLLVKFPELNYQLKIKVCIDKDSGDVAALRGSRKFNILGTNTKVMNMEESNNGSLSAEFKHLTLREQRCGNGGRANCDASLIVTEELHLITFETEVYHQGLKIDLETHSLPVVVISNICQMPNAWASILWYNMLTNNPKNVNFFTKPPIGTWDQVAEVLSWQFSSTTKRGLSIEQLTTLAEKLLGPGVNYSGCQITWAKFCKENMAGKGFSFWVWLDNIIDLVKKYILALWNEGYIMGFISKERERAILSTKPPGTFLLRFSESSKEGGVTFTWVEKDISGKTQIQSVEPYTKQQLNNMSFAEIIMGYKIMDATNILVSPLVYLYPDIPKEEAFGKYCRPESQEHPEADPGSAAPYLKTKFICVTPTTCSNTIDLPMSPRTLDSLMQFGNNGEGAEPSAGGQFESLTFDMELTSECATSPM

O=c1nc(SCc2cccc(C(F)(F)F)c2)nc2ccccn12
inactive: AC50 [1] > 60 µM

Cc1ccc(/C=C/c2nc(O)c3c(C)c(C(=O)O)sc3n2)cc1[N+](=O)[O-]
active: IC50 [3] 4.56 µM | IC50 [4] 3.17 µM | IC50 [5] 6.19 µM | IC50 [6] 1.62 µM | IC50 [7] 2.92 µM | IC50 [8] 8.48 µM | IC50 [10] 6.6 µM | IC50 [11] 12.2 µM | IC50 [12] 11.1 µM | IC50 [14] 12.9 µM | IC50 [15] 3.43 µM | IC50 [16] 16.8 µM | IC50 [17] 11.2 µM | IC50 [18] 10.7 µM | IC50 [19] 50.9 µM
inactive: IC50 [2] > 99 µM | IC50 [9] 32.7 µM | IC50 [13] > 80 µM

CCCn1c(SCC(=O)NNC(=O)c2ccc(C)cc2)nnc1C(C)C
active: AC50 [20] 9.91 µM

c1ccc(CC2CCN(c3nc(CN4CCOCC4)nc4sc5c(c34)CCCC5)CC2)cc1
inactive: IC50 [21] > 55.7 µM | IC50 [22] > 55.7 µM

O=C(CSc1nc(O)c2c(-c3ccccc3)csc2n1)Nc1ccccc1
active: EC50 [23] 5.71 µM | IC50 [24] 1.93 µM | IC50 [27] 16 µM | IC50 [28] 4.78 µM
inactive: IC50 [25] > 20 µM | IC50 [26] > 20 µM

COc1ccc(C2=NN(C(=O)CCCC(=O)O)C(c3cn(-c4ccccc4)nc3-c3ccccc3)C2)cc1 (stereo unspecified)
active: IC50 [30] 19.8 µM | IC50 [31] 3.91 µM | IC50 [32] 17.5 µM
inactive: IC50 [29] > 50 µM

Cn1cc(/C=C(\C#N)C(=O)Nc2ccccc2O)c2ccccc21
active: IC50 [34] 5.57 µM | IC50 [36] 4.48 µM
inactive: IC50 [33] > 66.2 µM | IC50 [35] 25 µM

Source: ChEMBL document CHEMBL1201862, “PubChem BioAssay data set” (2004)
